Source: US8486962B2, “Antifungal agents” (F2G Ltd., priority 2005, dated 2013)
≈ marks a conversion by molar mass, not a printed value.

Experiments:
Assay type in all cases: cell-based
Aspergillus flavus = test: MIC, YAG medium, Aspergillus flavus; conditions: YAG medium; for MIC: Aspergillus flavus, read-out: MIC A Flavus 01
Experimental: (§1) Measurement of Minimum Inhibitory Concentrations (MICs)
(§2) Between 1 and 5 mgs of compound were accurately weighed out into a sterile Eppendorf tube. The compound was dissolved in DMSO to give a solution containing 5 mg/ml. Tubes were stored at −20° C. until required.
(§3) On the day of testing thawed solutions were vortex mixed to ensure homogeneity. 30 μl of solution was removed and added to 570 μl of sterile water in a separate sterile Eppendorf. The thoroughly mixed solution was used to prepare a series of doubling dilutions in water, in a deep well plate. Eleven replicate plates were prepared using a Minitrak by aspirating 20 μl from each well into eleven clear polystyrene 96 well plates.
(§4) Spores of Aspergillus spp (Aspergillus fumigatus, Aspergillus terreus, Aspergillus niger and Aspergillus flavus) were harvested from cultures grown on Sabarauds agar for 5 days, and resuspended in PBS/Tween 80 to approx 1×10^7 cfu/ml Other filamentous fungi (Fusarium solani, Scedosporium spp., Trichophyton spp., Absidia corymbifera), were grown on Sabarauds agar for 2-10 days and spores/hyphae resuspended in PBS/Tween to give approx 1×10^7 cfU/ml. Candida species (Candida albicans, Candida glabrata, Candida krusei, Candida parapsilosis and Candida tropicalis) were grown on Sabarauds agar, cells were harvested from the agar using a sterile loop and resuspended in PBS/Tween 80 to approx 1×10^6 cfu/ml. Each organism suspension was diluted in RPMI medium, containing 2% glucose and 0.135M MOPS buffer (pH7.0) to 2×10^4 cfu/ml for Aspergillus spp and other filamentous fungi and 2×10^3 cfu/ml for yeast. 80 μl of an organism suspension was added to each well of the plate containing drug dilutions.
(§5) This produced MIC plates with a drug range 50-0.05 mg/L and organism inocula of 1-2×10^4 cfu/ml for Aspergillus spp and other filamentous fungi and 1-2×10^3 cfu/ml for yeasts. All plates were incubated for 24-48 hrs at 35° C. Growth was assessed by monitoring the optical density at 485 nm for each well. The MIC of a compound is the lowest drug concentration that inhibits growth of an organism by >80% compared with a drug free control. MICs are recorded as mg/L. Other growth media can be used for susceptibility testing, and the activity of the described compounds can also be assessed in a medium comprising, 1% glucose, 1% ammonium chloride and 0.5% yeast extract (YAG medium). To perform MIC tests in this medium, dilutions of compounds are prepared in microtitre plates as described above. Fungal strains to be tested are grown and harvested in an identical manner to that described above, each organism suspension is then diluted in YAG medium to 2×10^4 cfu/ml for Aspergillus spp and other filamentous fungi and 2×10^3 cfu/ml for yeast. 80 μl of an organism suspension was added to each well of the plate containing drug dilutions. This produced MIC plates with a drug range 50-0.05 mg/L and organism inocula of 1-2×10^4 cfu/ml for Aspergillus spp and other filamentous fungi and 1-2×10^3 cfu/ml for yeasts. All plates were incubated for 24 hrs at 35° C. Growth was assessed by monitoring the optical density at 485 nm for each well. The MIC of a compound is the lowest drug concentration that inhibits growth of an organism by >70% compared with a drug free control. MICs are recorded as mg/L. In cases where the MIC of an organism is […]0.05 mg/L the MIC is repeated using a concentration range of 0.5-0.0005 mg/L. MIC tests in YAG medium have more clear-cut endpoints and have slightly lower MICS than those performed in RPMI medium.
(§6) The following organisms were tested: Aspergillus fumigatus AF293 and Aspergillus fumigatus AF210, Aspergillus niger, Aspergillus terreus, Aspergillus favus, Candida albicans, Candida krusei, Candida tropicalis, Candida glabrata, Candida parapsilosis, Trichophyton rubrum, Trichophyton mentagrophytes, Scedosporium prolificans, Scedosporium apiospermum, Absidia corymbifera, Fusarium solani.

[1] = test system: Aspergillus fumigatus AF293; test: MIC, YAG medium, Aspergillus fumigatus AF293; conditions: YAG medium; for MIC: Aspergillus fumigatus, AF293, read-out: MIC A Fum. 293
Experimental: as §1, §2, §3, §4, §5, §6

Aspergillus niger = test: MIC, YAG medium, Aspergillus niger; conditions: YAG medium; for MIC: Aspergillus niger, read-out: MIC A Niger 1
Experimental: as §1, §2, §3, §4, §5, §6

Aspergillus terreus = test: MIC, YAG medium, Aspergillus terreus; conditions: YAG medium; for MIC: Aspergillus terreus, read-out: MIC A Terreus 4
Experimental: as §1, §2, §3, §4, §5, §6

[2] = test system: Aspergillus fumigatus AF210; test: MIC, YAG medium, Aspergillus fumigatus AF210; conditions: YAG medium; for MIC: Aspergillus fumigatus, AF210, read-out: MIC A Fum. 210
Experimental: as §1, §2, §3, §4, §5, §6

COc1ccc(NC(=O)C(=O)c2c(-c3ccccc3)cc3cccc(C)n23)cn1 [Example 189, N-(6-Methoxy-pyridin-3-yl)-2-(5-methyl-2-phenyl-indolizin-3-yl)-2-oxo-acetamide]
MIC (Aspergillus flavus): 3.1 mg/L (≈ 8.04 µM)
MIC [1]: 3.1 mg/L (≈ 8.04 µM)
MIC (Aspergillus niger): 0.8 mg/L (≈ 2.08 µM)
MIC (Aspergillus terreus): 1.6 mg/L (≈ 4.15 µM)
MIC [2]: 3.1 mg/L (≈ 8.04 µM)

Cc1ccc(NC(=O)C(=O)c2c(-c3ccccc3)cc3ccc(C)cn23)cc1 [Example 190, 2-(6-Methyl-2-phenyl-indolizin-3-yl)-2-oxo-N-p-tolyl-acetamide]
MIC (Aspergillus flavus): 0.4 mg/L (≈ 1.09 µM)
MIC [1]: 1.6 mg/L (≈ 4.34 µM)
MIC (Aspergillus niger): 0.4 mg/L (≈ 1.09 µM)
MIC (Aspergillus terreus): 0.1 mg/L (≈ 0.271 µM)
MIC [2]: 1.6 mg/L (≈ 4.34 µM)

Cc1ccc(NC(=O)C(=O)c2c(-c3ccccc3)cc3cc(C)ccn23)cc1 [Example 191, 2-(7-Methyl-2-phenyl-indolizin-3-yl)-2-oxo-N-p-tolyl-acetamide]
MIC (Aspergillus flavus): 0.8 mg/L (≈ 2.17 µM)
MIC [1]: 3.1 mg/L (≈ 8.41 µM)
MIC (Aspergillus niger): 1.6 mg/L (≈ 4.34 µM)
MIC (Aspergillus terreus): 0.2 mg/L (≈ 0.543 µM)
MIC [2]: 3.1 mg/L (≈ 8.41 µM)

COc1ccc(NC(=O)C(=O)c2c(-c3ccccc3)cc3ccc(C)cn23)cn1 [Example 192, N-(6-Methoxy-pyridin-3-yl)-2-(6-methyl-2-phenyl-indolizin-3-yl)-2-oxo-acetamide]
MIC (Aspergillus flavus): 0.4 mg/L (≈ 1.04 µM)
MIC [1]: 1.6 mg/L (≈ 4.15 µM)
MIC (Aspergillus niger): 0.8 mg/L (≈ 2.08 µM)
MIC (Aspergillus terreus): 0.4 mg/L (≈ 1.04 µM)
MIC [2]: 1.6 mg/L (≈ 4.15 µM)

COc1ccc(NC(=O)C(=O)c2c(-c3ccccc3)cc3cc(C)ccn23)cn1 [Example 193, N-(6-Methoxy-pyridin-3-yl)-2-(7-methyl-2-phenyl-indolizin-3-yl)-2-oxo-acetamide]
MIC (Aspergillus flavus): 6.25 mg/L (≈ 16.2 µM)
MIC [1]: > 50 mg/L
MIC (Aspergillus niger): > 50 mg/L
MIC (Aspergillus terreus): 0.8 mg/L (≈ 2.08 µM)
MIC [2]: > 50 mg/L

COc1ccc(NC(=O)C(=O)c2c(-c3ccccc3)cc3c(C)cccn23)cn1 [Example 194, N-(6-Methoxoy-pyridin-3-yl)-2-(8-methyl-2-phenyl-indolizin-3-yl)-2-oxo-acetamide]
MIC A Flavus 01 (Aspergillus flavus): >50 mg/L
MIC A Fum. 293 [1]: >50 mg/L
MIC A Niger 1 (Aspergillus niger): >50 mg/L
MIC A Terreus 4 (Aspergillus terreus): 25 mg/L (≈ 64.9 µM)
MIC A Fum. 210 [2]: >50 mg/L

COc1ccc2cc(-c3ccccc3)c(C(=O)C(=O)Nc3ccc(OC)nc3)n2c1 [Example 195, 2-(6-Methoxy-2-phenyl-indolizin-3-yl)-N-(6-methoxy-pyridin-3-yl)-2-oxo-acetamide]
MIC (Aspergillus flavus): 0.4 mg/L (≈ 0.996 µM)
MIC [1]: 6.25 mg/L (≈ 15.6 µM)
MIC (Aspergillus niger): 1.6 mg/L (≈ 3.99 µM)
MIC (Aspergillus terreus): 0.4 mg/L (≈ 0.996 µM)
MIC [2]: 6.25 mg/L (≈ 15.6 µM)

O=C(Nc1ccc(Cl)cc1)C(=O)c1c(-c2cccnc2)cc2ccccn12 [Example 197, N-(4-Chloro-phenyl)-2-oxo-2-(2-pyridin-3-yl-indolizin-3-yl)-acetamide]
MIC (Aspergillus flavus): 0.4 mg/L (≈ 1.06 µM)
MIC [1]: 3.1 mg/L (≈ 8.25 µM)
MIC (Aspergillus niger): 0.8 mg/L (≈ 2.13 µM)
MIC (Aspergillus terreus): 0.2 mg/L (≈ 0.532 µM)
MIC [2]: 3.1 mg/L (≈ 8.25 µM)

O=C(Nc1ccc(F)cc1)C(=O)c1c(-c2cccnc2)cc2ccccn12 [Example 198, N-(4-Fluoro-phenyl)-2-oxo-2-(2-pyridin-3-yl-indolizin-3-yl)-acetamide]
MIC (Aspergillus flavus): 0.8 mg/L (≈ 2.23 µM)
MIC [1]: 3.1 mg/L (≈ 8.63 µM)
MIC (Aspergillus niger): 1.6 mg/L (≈ 4.45 µM)
MIC (Aspergillus terreus): 0.8 mg/L (≈ 2.23 µM)
MIC [2]: > 50 mg/L

Cc1ccc(NC(=O)C(=O)c2c(-c3cccnc3)cc3ccc(C)cn23)cc1 [Example 199, 2-(6-Methyl-2-pyridin-3-yl-indolizin-3-yl)-2-oxo-N-p-tolyl-acetamide]
MIC (Aspergillus flavus): > 50 mg/L
MIC [1]: > 50 mg/L
MIC (Aspergillus niger): > 50 mg/L
MIC (Aspergillus terreus): 1.6 mg/L (≈ 4.33 µM)
MIC [2]: > 50 mg/L

O=C(Nc1ccccc1Cl)C(=O)c1c(-c2ccccc2)cc2ccccn12 [Example 207, N-(2-Chloro-phenyl)-2-oxo-2-(2-phenyl-indolizin-3-yl)-acetamide]
MIC (Aspergillus flavus): 0.1 mg/L (≈ 0.267 µM)
MIC [1]: 0.8 mg/L (≈ 2.13 µM)
MIC (Aspergillus niger): 0.05 mg/L (≈ 0.133 µM)
MIC (Aspergillus terreus): 0.05 mg/L (≈ 0.133 µM)
MIC [2]: 0.8 mg/L (≈ 2.13 µM)

CCOC(=O)c1ccccc1NC(=O)C(=O)c1c(-c2ccccc2)cc2ccccn12 [Example 208, 2-[2-Oxo-2-(2-phenyl-indolizin-3-yl)-acetylamino]-benzoic acid ethyl ester]
MIC (Aspergillus flavus): > 50 mg/L
MIC [1]: > 50 mg/L
MIC (Aspergillus niger): > 50 mg/L
MIC (Aspergillus terreus): 12.5 mg/L (≈ 30.3 µM)
MIC [2]: > 50 mg/L
